Experimental data taken from ChEMBL document CHEMBL4257544, “Synthesis and biological evaluation of novel asymmetric naphthalene diimide derivatives as anticancer agents depending on ROS generation” (Medchemcomm, 2018).
Calls of active or inactive are those of the source.

How the values were obtained:
SMMC-7721 [1] = experiment: Cytotoxicity against human SMMC7721 cells after 24 hrs by MTT assay; type: functional, cell-based; conditions: SMMC-7721, 24 h
HepG2 [2] = experiment: Cytotoxicity against human HepG2 cells assessed as cell rounding after 24 hrs; type: functional, cell-based
HepG2 [3] = experiment: Cytotoxicity against human HepG2 cells assessed as reduction in cell volume after 24 hrs; type: functional, cell-based
HepG2 [4] = experiment: Cytotoxicity against human HepG2 cells assessed as cytoplasm shrinkage after 24 hrs; type: functional, cell-based
SMMC-7721 [5] = experiment: Cytotoxicity against human SMMC7721 cells assessed as cytoplasm shrinkage after 24 hrs; type: functional, cell-based
SMMC-7721 [6] = experiment: Induction of apoptosis in human SMMC7721 cells after 24 hrs by acridine orange/ethidium bromide and Hoechst 33342 staining based HCS analysis; type: functional, cell-based
HepG2 [7] = experiment: Induction of apoptosis in human HepG2 cells at 3 uM after 48 hrs by Annexin V/propidium iodide staining based flow cytometry relative to control; type: functional
HepG2 [8] = experiment: Induction of apoptosis in human HepG2 cells assessed as decrease in Bcl2 protein expression at 1 to 3 uM after 24 hrs by Western blot analysis; type: functional, cell-based
SMMC-7721 [9] = experiment: Induction of apoptosis in human SMMC7721 cells assessed as increase in caspase-8 activation at 1 to 3 uM after 24 hrs by Western blot analysis; type: functional, cell-based
SMMC-7721 [10] = experiment: Induction of autophagy in human SMMC7721 cells assessed as vacuolization at 2 uM after 12 hrs by transmission electron microscopic method; type: functional, cell-based
SMMC-7721 [11] = experiment: Induction of autophagy in human SMMC7721 cells after 24 hrs by MDC staining based HCS analysis; type: functional, cell-based
HepG2 [12] = experiment: Induction of autophagy in human HepG2 cells after 24 hrs by MDC staining based HCS analysis; type: functional, cell-based
SMMC-7721 [13] = experiment: Induction of autophagy in human SMMC7721 cells assessed as increase in LC3-2 level by Western blot analysis; type: functional, cell-based
HepG2 [14] = experiment: Induction of autophagy in human HepG2 cells assessed as decrease in p62 level at 1 to 3 uM by Western blot analysis; type: functional, cell-based
SMMC-7721 [15] = experiment: Induction of ROS generation in human SMMC7721 cells at 1 to 3 uM after 24 hrs by DCFH-DA staining based HCS analysis; type: functional, cell-based
HepG2 [16] = experiment: Cytotoxicity against human HepG2 cells assessed as reduction in cell viability treated at 1 hr post antioxidant alpha-tocopherol addition by MTT assay; type: functional, cell-based
SMMC-7721 [17] = experiment: Cytotoxicity against human SMMC7721 cells assessed as morphological changes treated at 1 hr post antioxidant alpha-tocopherol addition and measured after 24 hrs; type: functional, cell-based
SMMC-7721 [18] = experiment: Induction of apoptosis in human SMMC7721 cells assessed as increase in p53 protein expression treated at 1 hr post antioxidant alpha-tocopherol addition and measured after 24 hrs by Western blot analysis; type: functional, cell-based
HepG2 [19] = experiment: Induction of apoptosis in human HepG2 cells assessed as increase in cleaved PARP1 protein expression treated at 1 hr post antioxidant alpha-tocopherol addition and measured after 24 hrs by Western blot analysis; type: functional, cell-based
HepG2 [20] = experiment: Induction of autophagy in human HepG2 cells assessed as increase in LC3-2 protein expression treated at 1 hr post antioxidant alpha-tocopherol addition and measured after 24 hrs by Western blot analysis; type: functional, cell-based
SMMC-7721 [21] = experiment: Induction of autophagy in human SMMC7721 cells assessed as increase in LC3-2 protein expression treated at 1 hr post antioxidant alpha-tocopherol addition and measured after 24 hrs by Western blot analysis; type: functional, cell-based
HepG2 [22] = experiment: Antimigratory activity against human HepG2 cells after 24 hrs by scratch wound healing assay; type: functional, cell-based
SMMC-7721 [23] = experiment: Antimigratory activity against human SMMC7721 cells after 24 hrs by scratch wound healing assay; type: functional, cell-based
SMMC-7721 [24] = experiment: Antimigratory activity against human SMMC7721 cells at 1 to 3 uM after 24 hrs by crystal violet staining based transwell migration assay; type: functional, cell-based
HepG2 [25] = experiment: Downregulation of beta-catenin protein expression in human HepG2 cells at 1 to 3 uM after 24 hrs by Western blot analysis; type: functional, cell-based
HepG2 [26] = experiment: Downregulation of Akt phosphorylation at […] residue in human HepG2 cells at 1 to 3 uM after 24 hrs by Western blot analysis; type: functional, cell-based
SMMC-7721 [27] = experiment: Antimigratory activity against human SMMC7721 cells treated at 1 hr post antioxidant alpha-tocopherol addition and measured after 24 hrs by scratch wound healing assay; type: functional, cell-based
HepG2 [28] = experiment: Downregulation of beta-catenin protein expression in human HepG2 cells treated at 1 hr post antioxidant alpha-tocopherol addition and measured after 24 hrs by Western blot analysis; type: functional, cell-based

CCCCN1C(=O)c2ccc3c4c(ccc(c24)C1=O)C(=O)N(CCCN(C)C)C3=O
inactive: Activity (HepG2 [16]) | Activity (SMMC-7721 [17]) | Activity (SMMC-7721 [18]) | Activity (HepG2 [19]) | Activity (HepG2 [20]) | Activity (SMMC-7721 [21]) | Activity (SMMC-7721 [27]) | Activity (HepG2 [28])
active: Activity (HepG2 [2]) | Activity (HepG2 [3]) | Activity (HepG2 [4]) | Activity (SMMC-7721 [5]) | Activity (SMMC-7721 [6]) Dose-dependent effect | Activity (HepG2 [8]) | Activity (SMMC-7721 [9]) | Activity (SMMC-7721 [10]) | Activity (SMMC-7721 [11]) Dose-dependent effect | Activity (HepG2 [12]) Dose-dependent effect | Activity (SMMC-7721 [13]) Dose-dependent effect | Activity (HepG2 [14]) | Activity (SMMC-7721 [15]) | Activity (HepG2 [22]) Dose-dependent effect | Activity (SMMC-7721 [23]) Dose-dependent effect | Activity (SMMC-7721 [24]) | Activity (HepG2 [25]) | Activity (HepG2 [26])
67.8%: Activity (HepG2 [7])
5.38 µM: IC50 (SMMC-7721 [1])
